Data: PMC6359749, “Lignans from the Twigs of Litsea cubeba and Their Bioactivities” (Molecules, 2019)

Experiments:
[1] = system: human colon cancer (HCT-116) cell line; assay: Cytotoxicity assay (MTT), HCT-116; assay type: cell-based; conditions: 24 h treatment
Description: (§1) The cytotoxic activity was determined against human colon cancer (HCT-116), human non-small-cell lung carcinoma (NCI-H1650), and human ovarian cancer (A2780) cell lines which were bought from the Cell Bank of Shanghai Institute of Cell Biology (Chinese Academy of Sciences) and originally obtained from the American Type Culture Collection (ATCC, Rockville, MD, USA). Cells were grown in RPMI 1640 (GIBCO, New York, NY, USA) supplemented with 10% fetal calf serum (Life Technologies, Carlsbad, CA, USA), penicillin G (100 U/mL), and streptomycin (100 μg/mL) at 37 °C in a 5% CO2 and seeded in 96-well plates (CLS3635, Corning®, Sigma, Santa Clara, CA, USA) at a cell density of 3000 per well over night, and then were treated with various diluted concentrations (each concentration was arranged triple) of compounds 1–19, which were prepared with DMSO (Sigma) to 100 μM stock solution and stored in −20 °C in advance. After 24 h of treatment, 10 μL of MTT (5 mg/mL in PBS) was then added directly to all wells and the plates were placed in the dark at 37 °C for 3 h incubation. Cell viability was measured by observing absorbance at 570 nm on a SpectraMax^190 microplate reader (Molecular Devices, Silicon Valley, CA, USA). IC50 values were calculated using Microsoft Excel software (version 2010, Redmond, WA, USA). Taxol was used as a positive control.

[2] = system: human non-small-cell lung carcinoma (NCI-H1650) cell line; assay: Cytotoxicity assay (MTT), NCI-H1650; assay type: cell-based; conditions: for IC50: Homo sapiens, NCI-H1650, MTT, 24 h treatment
Description: as §1

[3] = system: human ovarian cancer (A2780) cell line; assay: Cytotoxicity assay (MTT), A2780; assay type: cell-based; conditions: 24 h treatment
Description: as §1

[4] = system: LPS-induced NO production in RAW264.7 macrophages; assay: LPS-induced nitric oxide (NO) production in RAW264.7 macrophages (Griess); assay type: cell-based; conditions: Mus musculus, LPS 1 μg/mL, 18 h, read-out: IC50 against LPS-induced NO production
Description: The RAW 264.7 macrophages were cultured in The RPMI 1640 medium (Hyclone, Logan, UT, USA) containing 10% FBS. The compounds were dissolved in DMSO and further diluted in medium to produce different concentrations. The cell mixture and culture medium were dispensed into 96-well plates (2 × 10^5 cells/well) and maintained at 37 °C under 5% CO2. After preincubation for 24 h, serial dilutions of the test compounds were added into the cells, up to the maximum concentration 25 μM, then added with LPS to a concentration 1 μg/mL and continued to incubate for 18 h. The amount of NO was assessed by determined the nitrite concentration in the cultured RAW264.7 macrophage supernatants with Griess reagent. Aliqueots of supernatants (100 μL) were incubated, in sequence, with 50 μL 1% sulphanilamide and 50 μL 1% naphthylethylenediamine in 2.5% phosphoric acid solution. The sample absorbance was measured at 570 nm by a 2104 Envision Multilabel Plate Reader (PerkinElmer, Inc., Waltham, MA, USA). Dexamethasone was used as a positive control.

[5] = target: T1, human protein tyrosine phosphatase 1B (GST-hPTP1B) (Homo sapiens, UniProt P18031); assay: PTP1B inhibition assay (p-NPP dephosphorylation); assay type: biochemical; conditions: 3 mM p-NPP, HEPES pH 7.0, 30 °C, 10 min; read-out: IC50 against PTP1B
T1 construct: GST; made in house
T1 sequence (P18031 1-435): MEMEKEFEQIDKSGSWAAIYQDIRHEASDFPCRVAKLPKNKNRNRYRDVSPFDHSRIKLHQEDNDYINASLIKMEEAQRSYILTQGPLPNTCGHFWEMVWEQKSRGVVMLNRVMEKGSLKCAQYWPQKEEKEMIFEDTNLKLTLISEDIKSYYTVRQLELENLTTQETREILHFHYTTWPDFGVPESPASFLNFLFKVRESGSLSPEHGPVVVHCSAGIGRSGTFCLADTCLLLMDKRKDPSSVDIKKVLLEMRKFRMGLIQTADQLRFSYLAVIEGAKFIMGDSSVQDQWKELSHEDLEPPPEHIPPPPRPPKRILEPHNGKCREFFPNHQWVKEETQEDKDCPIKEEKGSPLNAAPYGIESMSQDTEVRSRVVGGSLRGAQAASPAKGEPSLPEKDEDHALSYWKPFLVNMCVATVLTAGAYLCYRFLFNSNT
Description: The dephosphorylation of para-nitrophenyl phosphate (p-NPP) was catalyzed to para-nitrophenol by PTP1B. Enzyme activity involving an end-point assay, which intensified the yellow color, was measured at a wavelength of 405 nm. All compounds were dissolved in 100% dimethyl sulfoxide (DMSO), and reactions, including controls, were performed at a final concentration of 10% DMSO. Selected compounds were first evaluated for their ability to inhibit the PTPase reaction at a 10 μM concentration at 30 °C for 10 min, in a reaction system with 3 mM p-NPP in HEPES assay buffer (pH 7.0). The reaction was initiated by addition of the enzyme and quenched by addition of 1 M NaOH. The amount of the produced p-nitrophenol was determined at 405 nm using a microplate spectrophotometer (uQuant, Bio-Tek, Winooski, VT, USA). IC50 values were evaluated using a sigmoidal dose-response (variable slope) curve-fitting program of GraphPad Prism 4.0 software (La Jolla, CA, USA). Oleanolic acid was used as a positive control.

| Structure (SMILES) | IC50 [1] [µM] | IC50 [2] [µM] | folds more active than 8, 9, 13, and 14 ([2]; NCI-H1650 cell line, versus 8, 9, 13 and 14) | IC50 [3] [µM] | IC50 [4] [µM] | IC50 [5] [µM] |
| --- | --- | --- | --- | --- | --- | --- |
| COc1cc(C=CC(=O)OCC2C(C(=O)c3cc(OC)c(O)c(OC)c3)COC2c2cc(OC)c(O)c(OC)c2)ccc1O (single isomer, unassigned; (+)) [Compound 7] | > 20 | 2.47 | 4-6 folds | > 20 | – | – |
| COc1cc(C=CC(=O)OCC2C(Cc3cc(OC)c(O)c(OC)c3)COC2c2cc(OC)c(O)c(OC)c2)cc(OC)c1O (single isomer, unassigned; (+)) [Compound 8] | > 20 | 11.2 | – | > 20 | – | – |
| COc1cc(C=CC(=O)OCC2C(Cc3cc(OC)c(O)c(OC)c3)COC2c2cc(OC)c(O)c(OC)c2)ccc1O (single isomer, unassigned; (+)) [Compound 13, (+)-9′-O-(E)-feruloyl-5,5′-dimethoxylariciresinol] | > 20 | 9.68 | – | > 20 | – | – |
| COc1cc(C=CC(=O)OCC2C(Cc3ccc(O)c(OC)c3)COC2c2cc(OC)c(O)c(OC)c2)ccc1O (single isomer, unassigned; (+)) [Compound 14, (+)-9′-O-(E)-feruloyl-5′-methoxylariciresinol] | > 20 | 10.5 | – | > 20 | – | – |
| COc1cc(CC2COC(c3cc(OC)c(O)c(OC)c3)C2CO)cc(OC)c1O (single isomer, unassigned; (+)) [Compound 15, (+)-5,5′-dimethoxylariciresinol] | > 20 | > 20 | – | > 20 | – | – |
| COc1cc(CC2COC(c3cc(OC)c(O)c(OC)c3)C2CO)ccc1O (single isomer, unassigned; (+)) [Compound 16, (+)-5′-methoxylariciresinol] | > 20 | > 20 | – | > 20 | – | – |
| COc1cc([C@@H]2c3c(cc(OC)c(O)c3OC)C=C(C(=O)NCCc3ccc(O)cc3)[C@H]2CO)cc(OC)c1O [Compound 1, (−)-(7′R,8′S)-N-[2-(4-hydroxyphenyl)-ethyl]-4,4′,9′-trihydroxy-3,5,3′,5′-tetramethoxy-2,7′-cyclolignan-7-en-9-amide] | > 20 | > 20 | – | > 20 | – | – |
| COc1cc(CCNC(=O)[C@@H]2C(C(=O)NCCc3ccc(O)cc3)=Cc3cc(OC)c(O)c(OC)c3[C@H]2c2cc(OC)c(O)c(OC)c2)ccc1O [Compound 2, (−)-(7′R,8′S)-N^1-[2-(4-hydroxyphenyl)-ethyl]-N^2-[2-(4-hydroxy-3-methoxyphenyl)-ethyl]-4,4′-dihydroxy-3,5,3′,5′-tetramethoxy-2,7′-cyclolignan-7-en-9,9′-diamide] | > 20 | > 20 | – | > 20 | – | – |
| COc1cc(CCNC(=O)C2=Cc3cc(OC)c(O)c(OC)c3[C@@H](c3cc(OC)c(O)c(OC)c3)[C@@H]2C(=O)NCCc2ccc(O)cc2)ccc1O [Compound 3, (−)-(7′R,8′S)-N^1-[2-(4-hydroxy-3-methoxyphenyl)-ethyl]-N^2-[2-(4-hydroxyphenyl)-ethyl]-4,4′-dihydroxy-3,5,3′,5′-tetramethoxy-2,7′-cyclolignan-7-en-9,9′-diamide] | > 20 | > 20 | – | > 20 | – | – |
| COc1cc(/C=C/C(=O)OC[C@@H](Cc2cc(OC)c(O)c(OC)c2)[C@@H](CO)Cc2cc(OC)c(O)c(OC)c2)ccc1O [Compound 5, (+)-(8S,8′S)-9-O-(E)-feruloyl-5,5′-dimethoxysecoisolariciresinol] | > 20 | > 20 | – | > 20 | 50.1 | – |
| COc1cc(/C=C/C(=O)OC[C@@H](Cc2ccc(O)c(OC)c2)[C@@H](CO)Cc2ccc(O)c(OC)c2)ccc1O [Compound 6, (+)-(8S,8′S)-9-O-(E)-feruloyl-secoisolariciresinol] | > 20 | > 20 | – | > 20 | 58.6 | – |
| COc1cc(C=CC(=O)OCC2C(c3cc(OC)c(O)c(OC)c3)OCC2C(OC)c2cc(OC)c(O)c(OC)c2)ccc1O (stereo not shown) [Compound 9, 9′-O-(E)-Feruloyl-5,7,5′-trimethoxylariciresinol] | > 20 | 13.2 | – | > 20 | – | – |
| COc1cc([C@@H]2c3c(cc(OC)c(O)c3OC)C=C(C(=O)NCCc3ccc(O)cc3)[C@H]2C(=O)NCCc2ccc(O)cc2)cc(OC)c1O [Compound 10, 1,2-dihydro-6,8-dimethoxy-7-hydroxy-1-(3,5-dimethoxy-4-hydroxyphenyl)-N^1,N^2-bis-[2-(4-hydroxypeenyl)ethyl]-2,3-naphthalene dicarboxamide] | > 20 | > 20 | – | > 20 | – | – |
| COc1cc(/C=C/C(=O)OC[C@@H](Cc2cc(OC)c(O)c(OC)c2)[C@@H](COC(=O)/C=C/c2ccc(O)c(OC)c2)Cc2cc(OC)c(O)c(OC)c2)ccc1O [Compound 11, (+)-9,9′-O-di-(E)-feruloyl-5,5′-dimethoxy secoisolariciresinol] | > 20 | > 20 | – | > 20 | 47.5 | 13.5 |
| COc1cc(/C=C/C(=O)OC[C@@H](Cc2ccc(O)c(OC)c2)[C@@H](COC(=O)/C=C/c2ccc(O)c(OC)c2)Cc2ccc(O)c(OC)c2)ccc1O [Compound 12, (+)-9,9′-O-di-(E)-feruloyl-secoisolariciresinol] | > 20 | > 20 | – | > 20 | 66.5 | – |
| COc1cc(C[C@H]2C(=O)OC[C@@H]2Cc2ccc(OC)c(OC)c2)ccc1O [Compound 17, arctigenin] | 3.25 | > 20 | – | 0.28 | – | – |
| COc1cc(C[C@H]2COC(=O)[C@@H]2Cc2ccc(O)c(OC)c2)ccc1O [Compound 18, matairesinol] | 14 | > 20 | – | 1.53 | – | – |
| COc1cc(C=C2C(=O)OCC2Cc2ccc(OC)c(OC)c2)ccc1O (stereo not shown) [Compound 19, (7E,8R′)-didehydroarctigenin] | 18.5 | > 20 | – | 12.8 | – | – |
| C[C@@H]1C[C@H]2[C@@H]3CCC4=CC(=O)C=C[C@]4(C)[C@@]3(F)[C@@H](O)C[C@]2(C)[C@@]1(O)C(=O)CO [Dexamethasone, reference compound] | – | – | – | – | 9.5 | – |
| CC(=O)O[C@H]1C(=O)[C@@]2(C)[C@H]([C@H](OC(=O)c3ccccc3)[C@]3(O)C[C@H](OC(=O)[C@H](O)[C@@H](NC(=O)c4ccccc4)c4ccccc4)C(C)=C1C3(C)C)[C@]1(OC(C)=O)CO[C@@H]1C[C@@H]2O [Taxol, reference compound] | 0.005 | 1.28 | – | 0.02 | – | – |
